Laboratory results from US20250352524A1, “PREVENTION OF METASTATIC OUTGROWTH USING TEAD INHIBITORS” (Georgetown University, priority 2024, published 2025).

Experiments:
[1] = test system: bone marrow-derived macrophages; experiment: Cytokine array of conditioned media, bone marrow-derived macrophages; assay type: cell-based, mouse; conditions: 1 μM VT107 for 24 hours
Source text: Due to the shifts in immune signaling observed in the lung tissue upon TEAD inhibition (FIG. 9), immune cell populations were first analyzed by flow cytometry in the lungs and spleens of tumor naïve mice. Consistent with the Cibersort analysis of RNA-seq data, there was a decrease in the monocytes population and an increase in the tissue-resident alveolar macrophages (AM) (FIG. 10, Panel A). […] Next, it was sought to determine the specific effects of iTEAD treatment on lung resident versus bone-marrow derived macrophages, as the dynamics of these cell populations are crucial for the establishment of the metastatic niche (Ries et al., 2014; Qian et al., 2011). Macrophages were retrieved from the lungs by isolating F4/80+ cells, a specific marker for murine macrophages, by FACS (fluorescence-activated cell sorting) as well as bone marrow-derived macrophages from the femurs of naïve C57BL/6 mice that were then differentiated in vitro using macrophage colony stimulating factor (M-CSF). Macrophages were treated with 1 μM of VT107 for 24 hours before the conditioned media was collected and analyzed on a cytokine array. […] There was no change in the level of the other cytokines detected (FIG. 10, Panel B). […]

THP1 macrophages = experiment: qPCR gene expression in THP1 macrophages; assay type: cell-based, human; conditions: 1 μM VT107 vs vehicle
Source text: To determine if knockdown of TEAD mimicked iTEAD effects, THP1 cells were transduced with shRNAs targeting TEAD 1, 3 and 4 or GFP as a control. Knockdown was confirmed by western blot with a pan TEAD antibody (FIG. 13, Panel A). […] TEAD knockdown in THP1 macrophages decreased protumor inflammatory cytokines CXCL2, 5, and 6 (FIG. 12, Panel C). […] Signaling pathways related to inflammatory diseases, such as rheumatoid arthritis, were decreased (FIG. 12, Panel D), as well as the inflammatory upstream regulators LPS and TNF (FIG. 12, Panel E). The score for M2-like upstream regulators, OSM (Shrivastava et al., 2019) and IL17A (Miller et al., 2020) was decreased by TEAD knockdown yet importantly, IL12 and the immune modulator used to enhance immunotherapy, NC410, scores were increased (Ramos et al., 2021) (FIG. 12, Panel D). Taken together, the response to iTEAD treatment or TEAD knockdown enhanced macrophages interaction with tumor cells and IL12 signaling. The global anti-inflammatory effect and the repression of the M2-like macrophage phenotypes are known to oppose the establishment of a hospitable metastatic niche (McGinnis et al., 2024; Sica et al., 2008; Noy & Pollard, 2014).
Total RNA was extracted from cell lines using a RNeasy Mini Kit (Qiagen, #74104) according to the manufacturer's instructions. cDNA from total RNA was made with the iScript cDNA synthesis kit according to the manufacturer's protocol (Biorad, #170-8891) and qPCR was performed in an iCycler iQ (BioRad) using the iQ SYBR Green Supermix (BioRad, #170-8882).

VT107
secreted IL4 levels [1]: reduced | secreted IL12 [1]: no effect | CD80 gene expression level (THP1 macrophages): increase | IL12 gene expression level (THP1 macrophages): increase | expression of YAP/TEAD target genes CTGF, S100Δ8 and S100Δ9 (THP1 macrophages): downregulated | expression of YAP/TEAD target genes CTGF, S100Δ8 and S100Δ9 (THP1 macrophages; listed as iTEAD): decreased expression
